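Growth conditions: 96-well plates. Treatment: test compound, 48 hours, 5 concentrations. Analysis: linear interpolation between bracketing concentrations; unreached endpoints set to highest concentration. TGI: total growth inhibition.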
Assays:
Experiment in all cases: growth of human tumour cells (NCI), 48 h
A549 NSCLC = system: A549 NSCLC
SK-MEL-28 melanoma = system: SK-MEL-28 melanoma
HL-60(TB) leukemia = system: HL-60(TB) leukemia
OVCAR-5 ovarian = system: OVCAR-5 ovarian
M14 melanoma = system: M14 melanoma
NCI-H460 lung = system: NCI-H460 lung
OVCAR-8 ovarian = system: OVCAR-8 ovarian
ACHN renal = system: ACHN renal
786-0 renal = system: 786-0 renal
NCI-H522 lung = system: NCI-H522 lung
TK-10 renal = system: TK-10 renal
OVCAR-3 ovarian = system: OVCAR-3 ovarian
LOX IMVI melanoma = system: LOX IMVI melanoma
NCI/ADR-RES ovarian = system: NCI/ADR-RES ovarian
SN12C renal = system: SN12C renal
UACC-257 melanoma = system: UACC-257 melanoma
HT29 colon = system: HT29 colon
K-562 leukemia = system: K-562 leukemia
RPMI-8226 leukemia = system: RPMI-8226 leukemia
SR leukemia = system: SR leukemia

Structure (SMILES) | TGI (A549 NSCLC) [µM] | TGI (SK-MEL-28 melanoma) [µM] | TGI (HL-60(TB) leukemia) [µM] | TGI (OVCAR-5 ovarian) [µM] | TGI (M14 melanoma) [µM] | TGI (NCI-H460 lung) [µM] | TGI (OVCAR-8 ovarian) [µM] | TGI (ACHN renal) [µM] | TGI (786-0 renal) [µM] | TGI (NCI-H522 lung) [µM] | TGI (TK-10 renal) [µM] | TGI (OVCAR-3 ovarian) [µM] | TGI (LOX IMVI melanoma) [µM] | TGI (NCI/ADR-RES ovarian) [µM] | TGI (SN12C renal) [µM] | TGI (UACC-257 melanoma) [µM] | TGI (HT29 colon) [µM] | TGI (K-562 leukemia) [µM] | TGI (RPMI-8226 leukemia) [µM] | TGI (SR leukemia) [µM]
C=C(Nc1nc2ccc(C)cc2s1)C(=O)C(CC)C(=O)C(CC)CC1C(=O)NC(=O)NC1=O (stereo unspecified) | > 100 | > 100 | > 100 | > 100 | > 100 | > 100 | > 100 | > 100 | > 100 | > 100 | > 100 | > 100 | > 100 | > 100 | > 100 | > 100 |  |  |  | 
CC(Oc1ccc(OCC2CCCCC2)cc1)C(=O)OCC(=O)c1ccc(-c2ccccc2)cc1 (stereo unspecified) | > 100 | > 100 | > 100 |  | > 100 | > 100 | > 100 | > 100 | > 100 | > 100 | > 100 | > 100 | > 100 |  | > 100 | > 100 | > 100 | > 100 |  | 
Cn1c2ccccc2c2ncc3[nH]c4ccccc4c3c21 | 49.6 | 31.7 | 41.3 | 47.8 | 35.2 | 32.2 | 52.7 | 54.9 | > 100 | 33.2 | 45.1 | 31.6 | 56.2 |  | 73.2 | 42.6 | 31.1 | 95.5 | 63 | 
C=CN1C(=O)[C@H](Oc2ccccc2)[C@@H]1c1ccccc1 | 85 | > 100 |  | > 100 | > 100 | > 100 | 83.6 | > 100 | 33.1 | 91.3 | > 100 |  |  |  | > 100 | > 100 | 69.4 | > 100 | 57 | > 100
COC(=O)C(C(=O)Cc1ccccc1[N+](=O)[O-])C(=O)OC | > 100 | > 100 | > 100 |  | > 100 | > 100 | > 100 | > 100 | > 100 | > 100 | > 100 | > 100 | > 100 |  | > 100 | > 100 | > 100 |  |  | > 100
N#Cc1c(-c2ccc(Cl)cc2)c(C#N)c(=O)n(NS(=O)(=O)c2ccccc2)c1O | > 100 | > 100 | 41.3 | > 100 | > 100 | 55 | > 100 | > 100 | > 100 | > 100 | > 100 |  | 30.7 | 93 | > 100 | > 100 | > 100 | > 100 | 26.2 | 
CC1CN=C(N(C(=O)Nc2ccc(Cl)c(Cl)c2)c2ccccc2)S1 (stereo unspecified) | > 100 | > 100 |  | > 100 | > 100 | > 100 | > 100 | > 100 | > 100 |  | > 100 | > 100 | > 100 | > 100 | > 100 | > 100 | > 100 |  | > 100 | 
COC(=O)c1nsc(OC)c1Cl | > 100 | > 100 | > 100 | > 100 | > 100 |  | > 100 |  | > 100 |  | > 100 | > 100 | > 100 | > 100 | > 100 | > 100 | > 100 | > 100 | > 100 | 
Cc1nn(C(=O)CC(=O)Nc2ccc(Cl)cc2)c(C)c1N=Nc1ccccc1C(=O)O | > 100 | > 100 | > 100 | > 100 | > 100 | > 100 | > 100 |  | > 100 | > 100 | > 100 | > 100 | > 100 |  | > 100 | > 100 | > 100 | > 100 | > 100 | 
CS(=O)(=O)c1ccc(-c2cc(-c3ccc(S(C)(=O)=O)cc3)[n+](-c3cc(-c4ccccc4)c([O-])c(-c4ccccc4)c3)c(-c3ccc(S(C)(=O)=O)cc3)c2)cc1 | > 100 | > 100 |  | > 100 | > 100 | > 100 | > 100 | > 100 | > 100 | > 100 | > 100 | > 100 | > 100 |  | > 100 | > 100 | > 100 | > 100 | > 100 | > 100
CN(CCN(C)C(=O)CCn1cc(F)c(=O)[nH]c1=O)C(=O)CCn1cc(F)c(=O)[nH]c1=O | > 100 | > 100 | > 100 | > 100 | > 100 | > 100 | > 100 | > 100 | > 100 | 12.5 | > 100 | > 100 | > 100 |  | > 100 |  | > 100 | > 100 | > 100 | > 100
C=CCN1CCC(O)(c2cc(C(=O)OCC)[nH]c2-c2cc(C)no2)C1 (stereo unspecified) | > 100 | > 100 | > 100 | > 100 | > 100 | > 100 | > 100 | > 100 | > 100 | > 100 | > 100 | > 100 | > 100 | > 100 | > 100 | > 100 | > 100 | > 100 | > 100 | 
Cc1ccc(NC(=O)CCc2nnc(N)o2)cc1 | > 100 | > 100 | > 91.7 | > 100 | > 100 | > 100 | > 100 | > 100 | > 100 | > 100 | > 100 | > 100 | > 100 |  | > 100 | > 100 | > 100 | > 100 | > 100 | 
CC(C)(C)OC/C=C(/CO)[C@@H]1C=C[C@H](O)C1 | > 100 | > 100 |  | > 100 | > 100 | > 100 |  | > 100 | > 100 |  |  | > 100 |  | > 100 | > 100 | > 100 | > 100 | > 100 | > 100 | 

From PubChem BioAssay (NCI)
